Test results: patent US5420335A, “Parenteral nutrients based on watersoluble glycerol bisacetoacetates” (priority 1993, dated 1995)
Several values for one entry are separate records, joined by “and”; a condition that tells them apart may be missing. Equal entries are not always repeated.

How the values were obtained:
Assay type in all cases: in vivo, rat (male Sprague-Dawley)
[1] = Nitrogen balance (difference between intake and urinary output); settings: for Nitrogen Balance, Difference Between Intake and Output: Table 3, Example 2
Protocol: (§1) Water was available ad libitum at all times.
(§2) The vein was then ligated dorsally to the catheter. […] Body weights were measured daily.
(§3) Infusate volume, oral food intake, body weight and urinary volume and total nitrogen were monitored daily for each rat. Infusate volume and food intake were determined by weighing the appropriate container at the start and end of each 24 hr. period. Measurements were recorded between 9 and 10 AM each day. At the end of the 7th day, rats were sacrificed, and blood and liver were harvested. Plasma was separated for measurement of free fatty acids, glucose, and ketone bodies. Liver was weighed and a sample was fixed in buffered formalin for gross histology.
(§4) The data were analyzed for significance by the one-way analysis of variance with repeated measures and comparing the effect of dietary treatment on each day. […] The null hypothesis was concluded invalid if p≤0.05. The analysis of variance was computed on a SAS statistical package.
FIG. 3 illustrates the difference between oral intake and urinary nitrogen output which is termed nitrogen balance. It is representative of nitrogen balance because urinary nitrogen is the major route for body loss of nitrogen.
The experimental compound contains 8% nitrogen. With an infusion of 5.6 grams/day, infused nitrogen would provide approximately 450 mg more than that listed in the data tables. The final balance figures includes this number which is calculated based on the actual daily infusion rate for each rat.

[2] = Liver weight after 7 days of infusion; settings: for Liver/100 GM: as percentage of body weight
Protocol: as §3
The data were analyzed for significance by the one-way analysis of variance with repeated measures and comparing the effect of dietary treatment on each day. […] The null hypothesis was concluded invalid if p≤0.05. The analysis of variance was computed on a SAS statistical package. […]

[3] = Oral dietary nitrogen (food) intake of intravenously infused rats
[4] = as above; settings: for Dietary Nitrogen Intake: Table 1, Example 2
Protocol: as §1, §2, §3, §4
This compound has an estimated energy density of 4.86 kcal/gram based on thermodynamic data from similar compounds.

[5] = Plasma free fatty acids, glucose and ketone bodies after 7 days of infusion; settings: plasma; for T.KB: total ketone bodies
Protocol: as §3, §4

[6] = Table 5, Example 2, end of day 7, average of 7 rats
[7] = Table 5, Example 2, end of day 7, individual rat

For OC[C@H]1OC(O)[C@H](O)[C@@H](O)[C@@H]1O (some centres unmarked) [Glucose, glucose, reference compound], the nitrogen balance ([1]; Example 2, 7 days) was “around +100 mg/day”, the nitrogen balance ([1]; Example 4, infused nitrogen considered (FIG. 8)) was “over 200 mg/day” and the “Nitrogen Balance, Difference Between Intake and Output” value ([1]; day 1, average of 7 rats) was 59 MG N. For the same molecule, the “Nitrogen Balance, Difference Between Intake and Output” value ([1]; day 1, individual rat) was -52.22 MG N and 72.46 MG N and -54.7 MG N and 31.61 MG N and 33.35 MG N and 204.48 MG N and 181.5 MG N, the “Nitrogen Balance, Difference Between Intake and Output” value ([1]; day 2, average of 7 rats) was 156 MG N and the “Nitrogen Balance, Difference Between Intake and Output” value ([1]; day 2, individual rat) was 85.19 MG N and 10.96 MG N and 116 MG N and 69.7 MG N and 102.25 MG N and 269.41 MG N and 438.03 MG N. The “Nitrogen Balance, Difference Between Intake and Output” value ([1]; day 3, average of 7 rats) was 88 MG N, the “Nitrogen Balance, Difference Between Intake and Output” value ([1]; day 3, individual rat) was 92.92 MG N and 23.56 MG N and -40.36 MG N and -62.37 MG N and 104.99 MG N and 102.06 MG N and 394.76 MG N and the “Nitrogen Balance, Difference Between Intake and Output” value ([1]; day 4, average of 7 rats) was 193 MG N. For the same molecule, the “Nitrogen Balance, Difference Between Intake and Output” value ([1]; day 4, individual rat) was 21.88 MG N and 37.92 MG N and 298.24 MG N and 5.39 MG N and 316.2 MG N and 269.11 MG N and 402.28 MG N, the “Nitrogen Balance, Difference Between Intake and Output” value ([1]; day 5, average of 7 rats) was 113 MG N and the “Nitrogen Balance, Difference Between Intake and Output” value ([1]; day 5, individual rat) was 125.86 MG N and 104.41 MG N and 91.79 MG N and 73.12 MG N and -0.62 MG N and -24.03 MG N and 421.33 MG N. The “Nitrogen Balance, Difference Between Intake and Output” value ([1]; day 6, average of 7 rats) was 124 MG N, the “Nitrogen Balance, Difference Between Intake and Output” value ([1]; day 6, individual rat) was 3.77 MG N and 39.74 MG N and 16.23 MG N and 206.92 MG N and 170.57 MG N and 41.21 MG N and 392.42 MG N and the “Nitrogen Balance, Difference Between Intake and Output” value ([1]; day 7, average of 7 rats) was 137 MG N. For the same molecule, the “Nitrogen Balance, Difference Between Intake and Output” value ([1]; day 7, individual rat) was 105.77 MG N and 52.38 MG N and -205.13 MG N and 366.51 MG N and 85.9 MG N and 206.76 MG N and 345.19 MG N, the nitrogen balance ([1]; in words, 7 days) was “positive nitrogen balances” and the “Liver/100 GM” value ([2]; Table 5, Example 2, average of 7 rats) was 3.220. For the same molecule, the “Liver/100 GM” value ([2]; Table 5, Example 2, individual rat) was 2.600 and 3.333 and 3.255 and 4.208 and 3.057 and 3.004 and 3.081, the “Liver Wt.” value [2, 6] was 7.983 Grams and the “Liver Wt.” value [2, 7] was 6.37 Grams and 7.6 Grams and 8.17 Grams and 9.51 Grams and 7.03 Grams and 8.05 Grams and 9.15 Grams. For the same molecule, the “Liver/100 GM” value ([2]; Table 11, Example 4, average) was 3.636, the “Liver/100 GM” value ([2]; Table 11, Example 4, individual rat) was 3.116 and 3.748 and 3.4975 and 3.789 and 4.01 and 4.617 and 3.403 and 3.377 and 3.169 and the “Liver Wt.” value ([2]; Table 11, Example 4, end of day 7, average) was 9.433. The “Liver Wt.” value ([2]; Table 11, Example 4, end of day 7, individual rat) was 8.2264 and 11.4311 and 9.5132 and 8.9798 and 9.9056 and 12.0506 and 8.4742 and 8.2387 and 8.0815, the “liver weight and percentage liver weight” value ([2]; in words, end of day 7) was “similarity between glucose infused and experimental compound infused rats liver” and the “Dietary Nitrogen Intake” value ([3]; Table 1, Example 2, day 1, average of 7 rats) was 203 MG N. For the same molecule, the “Dietary Nitrogen Intake” value ([3]; Table 1, Example 2, day 2, average of 7 rats) was 302 MG N, the “Dietary Nitrogen Intake” value ([3]; Table 1, Example 2, day 3, average of 7 rats) was 291 MG N and the “Dietary Nitrogen Intake” value ([3]; Table 1, Example 2, day 4, average of 7 rats) was 322 MG N. For the same molecule, the “Dietary Nitrogen Intake” value ([3]; Table 1, Example 2, day 5, average of 7 rats) was 290 MG N, the “Dietary Nitrogen Intake” value ([3]; Table 1, Example 2, day 7, average of 7 rats) was 354 MG N and the “Dietary Nitrogen Intake” value ([3]; Table 7, Example 4, oral only, day 1, average of 9 rats) was 279 MG N. For the same molecule, the “Dietary Nitrogen Intake” value ([3]; Table 7, Example 4, oral only, day 1, individual rat) was 500.08 MG N and 388.22 MG N and 164.5 MG N and 151.34 MG N and 78.96 MG N and 421.12 MG N and 329 MG N and 98.7 MG N and 375.06 MG N, the “Dietary Nitrogen Intake” value ([3]; Table 7, Example 4, oral only, day 2, average of 9 rats) was 369 MG N and the “Dietary Nitrogen Intake” value ([3]; Table 7, Example 4, oral only, day 2, individual rat) was 519.82 MG N and 513.24 MG N and 500.08 MG N and 98.7 MG N and 269.78 MG N and 434.28 MG N and 342.16 MG N and 243.46 MG N and 401.38 MG N. The “Dietary Nitrogen Intake” value ([3]; Table 7, Example 4, oral only, day 3, average of 9 rats) was 323 MG N, the “Dietary Nitrogen Intake” value ([3]; Table 7, Example 4, oral only, day 3, individual rat) was 355.32 MG N and 388.22 MG N and 394.8 MG N and 151.34 MG N and 467.18 MG N and 407.96 MG N and 197.4 MG N and the “Dietary Nitrogen Intake” value ([3]; Table 7, Example 4, oral only, day 4, average of 9 rats) was 372 MG N. The “Dietary Nitrogen Intake” value ([3]; Table 7, Example 4, oral only, day 4, individual rat) was 506.66 MG N and 401.38 MG N and 342.16 MG N and 427.7 MG N and 85.54 MG N and 282.94 MG N and 480.34 MG N and 486.92 MG N and 335.58 MG N, the “Dietary Nitrogen Intake” value ([3]; Table 7, Example 4, oral only, day 5, average of 9 rats) was 379 MG N and the “Dietary Nitrogen Intake” value ([3]; Table 7, Example 4, oral only, day 5, individual rat) was 493.5 MG N and 421.12 MG N and 368.48 MG N and 335.58 MG N and 0 MG N and 427.7 MG N and 454.02 MG N. For the same molecule, the “Dietary Nitrogen Intake” value ([3]; Table 7, Example 4, oral only, day 6, average of 9 rats) was 382 MG N, the “Dietary Nitrogen Intake” value ([3]; Table 7, Example 4, oral only, day 6, individual rat) was 500.08 MG N and 454.02 MG N and 375.06 MG N and 329 MG N and 0 MG N and 394.8 MG N and 421.12 MG N and 447.44 MG N and 519.82 MG N and the “Dietary Nitrogen Intake” value ([3]; Table 7, Example 4, oral only, day 7, average of 9 rats) was 381 MG N. For the same molecule, the “Dietary Nitrogen Intake” value ([3]; Table 7, Example 4, oral only, day 7, individual rat) was 421.12 MG N and 414.54 MG N and 355.32 MG N and 32.9 MG N and 401.38 MG N and 473.76 MG N and 407.96 MG N and 500.08 MG N, the “Dietary Nitrogen Intake” value ([4]; day 1, individual rat) was 111.86 MG N and 164.5 MG N and 486.92 MG N and 269.78 MG N and the “Dietary Nitrogen Intake” value ([4]; day 2, individual rat) was 217.14 MG N and 85.54 MG N and 427.7 MG N and 144.76 MG N and 493.5 MG N and 526.4 MG N. The “Dietary Nitrogen Intake” value ([4]; day 3, individual rat) was 151.34 MG N and 118.44 MG N and 559.3 MG N and 52.64 MG N and 250.04 MG N and 276.36 MG N and 631.68 MG N, the “Dietary Nitrogen Intake” value ([4]; day 4, individual rat) was 131.6 MG N and 118.44 MG N and 572.46 MG N and 98.7 MG N and 394.8 MG N and 414.54 MG N and 526.4 MG N and the “Dietary Nitrogen Intake” value ([4]; day 5, individual rat) was 236.88 MG N and 230.3 MG N and 407.96 MG N and 157.92 MG N and 223.72 MG N and 217.14 MG N and 559.3 MG N. The “Dietary Nitrogen Intake” value ([4]; day 6, average of 7 rats) was 303 MG N, the “Dietary Nitrogen Intake” value ([4]; day 6, individual rat) was 118.44 MG N and 105.28 MG N and 243.46 MG N and 342.16 MG N and 289.52 MG N and 375.06 MG N and 644.84 MG N and the “Dietary Nitrogen Intake” value ([4]; day 7, individual rat) was 177.66 MG N and 157.92 MG N and 269.78 MG N and 526.4 MG N and 210.56 MG N and 473.76 MG N and 664.58 MG N. The appetite depression ([4]; in words, Example 4) was “glucose induced better appetite depression than did the experimental compound”, the “differences in dietary nitrogen intake among the three groups” value ([4]; in words, vs saline and other groups, 7 days) was “no differences in dietary nitrogen intake among the three groups” and the ACAC [5, 6] was 0.088 mmol/L. The BOHB [5, 6] was 0.505 mmol/L, the FFa [5, 6] was 0.564 mmol/L and the Glucose [5, 6] was 185.423 mg/dL. For the same molecule, the ACAC [5, 7] was 0.020 mmol/L and 0.066 mmol/L and 0.194 mmol/L and 0.096 mmol/L and 0.017 mmol/L and 0.031 mmol/L, the BOHB [5, 7] was 0.385 mmol/L and 0.476 mmol/L and 0.533 mmol/L and 0.332 mmol/L and 0.358 mmol/L and 1.086 mmol/L and 0.363 mmol/L and the FFa [5, 7] was 0.337 mmol/L and 0.976 mmol/L and 0.850 mmol/L and 0.816 mmol/L and 0.168 mmol/L and 0.483 mmol/L and 0.316 mmol/L. For the same molecule, the Glucose [5, 7] was 196.840 mg/dL and 161.300 mg/dL and 162.620 mg/dL and 164.800 mg/dL and 237.100 mg/dL and 228.500 mg/dL, the T.KB [5, 6] was 0.593 mmol/L and the T.KB [5, 7] was 0.405 mmol/L and 0.542 mmol/L and 0.727 mmol/L and 0.427 mmol/L and 0.375 mmol/L and 1.280 mmol/L and 0.394 mmol/L. It also gave an ACAC ([5]; Table 11, Example 4, average) of 0.029 mmol/L and a BOHB ([5]; Table 11, Example 4, average) of 0.512 mmol/L.
